From ChEMBL document CHEMBL5120867, “Hernandezine Regulates Proliferation and Autophagy-Induced Apoptosis in Melanoma Cells” (J Nat Prod, 2022)

Experiments:
Format in all cases: functional
B16 [1] = assay: Induction of cell cycle arrest in mouse B16 cells assessed as accumulation at G0/G1 phase incubated for 24 hrs by PI staining based flow cytometry analysis (reference value: 56.59 %)
B16 [2] = assay: Induction of cell cycle arrest in mouse B16 cells assessed as accumulation at G2/M phase incubated for 24 hrs by PI staining based flow cytometry analysis (reference value: 0.88 %)
A-375 [3] = assay: Induction of cell cycle arrest in human A-375 cells assessed as accumulation at S phase incubated for 24 hrs by PI staining based flow cytometry analysis (reference value: 34.44 %)
B16 [4] = assay: Induction of cell cycle arrest in mouse B16 cells assessed as accumulation at S phase incubated for 24 hrs by PI staining based flow cytometry analysis (reference value: 42.53 %)
A-375 [5] = assay: Induction of cell cycle arrest in human A-375 cells assessed as accumulation at G2/M phase incubated for 24 hrs by PI staining based flow cytometry analysis (reference value: 8.87 %)
A-375 [6] = assay: Induction of cell cycle arrest in human A-375 cells assessed as accumulation at G0/G1 phase incubated for 24 hrs by PI staining based flow cytometry analysis (reference value: 56.69 %)

With N#C/C(=C\c1ccc(O)c(O)c1)C(=O)NCc1ccccc1 the Activity (B16 [1]) was 82.17%, the Activity (B16 [2]) was 2.72% and the Activity (A-375 [3]) was 31.61%. For the same compound, the Activity (B16 [4]) was 15.11%, the Activity (A-375 [5]) was 6.92% and the Activity (A-375 [6]) was 61.48%.
